Source: US9695155B2, “Herbicidal substituted pyrimidinyloxy benzene compounds” (E. I. DU PONT DE NEMOURS AND COMPANY, priority 2013, dated 2017)

Legend:
ragweed = test: Test A preemergence; assay type: in vivo, Ambrosia elatior
Procedure, shortened: (§1)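 Scoring: eye-based comparison with untreated controls, 0 for no effect through 100 for complete control, at about day 10. Treatments: directed soil spray preemergence; foliar spray postemergence on 2–10 cm plants at the one- to two-leaf stage. Medium: loam soil with sand.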

Italian ryegrass [1] = test: Test A postemergence; assay type: in vivo, Lolium multiflorum
Procedure, shortened: as §1

giant foxtail = test: Test A postemergence; assay type: in vivo, Setaria faberii
Procedure, shortened: as §1

velvetleaf = test: Test C postemergence; assay type: in vivo, Abutilon theophrasti
Procedure, shortened: (§2)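 Seeds are planted in blended loam soil and sand and treated preemergence, while seedlings in a peat moss/vermiculite medium receive postemergence sprays at 2 to 18 cm height. All plants stay in the greenhouse for 13 to 15 days before visual comparison with controls on a 0–100 scale.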

pigweed [2] = test: Test C postemergence; assay type: in vivo, Amaranthus retroflexus
Procedure, shortened: as §2

large (Lg) crabgrass = test: Test C preemergence; assay type: in vivo, Digitaria sanguinalis; conditions: for Crabgrass, Large plant response rating: preemergence
Procedure, shortened: as §2

kochia = test: Test C postemergence; assay type: in vivo, Kochia scoparia
Procedure, shortened: as §2

Italian ryegrass [3] = test: Test A preemergence; assay type: in vivo, Lolium multiflorum
Procedure, shortened: as §1

chickweed = test: Test C postemergence; assay type: in vivo, Stellaria media
Procedure, shortened: as §2

galium = test: Test A postemergence; assay type: in vivo, Galium aparine
Procedure, shortened: as §1

waterhemp = test: Test C preemergence; assay type: in vivo, Amaranthus rudis; conditions: for Waterhemp plant response rating: preemergence
Procedure, shortened: as §2

corn = test: Test A postemergence; assay type: in vivo, Zea mays
Procedure, shortened: as §1

yellow nutsedge = test: Test C preemergence; assay type: in vivo, Cyperus esculentus; conditions: for Nutsedge, Yellow plant response rating: preemergence
Procedure, shortened: as §2

pigweed [4] = test: Test C preemergence; assay type: in vivo, Amaranthus retroflexus; conditions: for Pigweed plant response rating: preemergence
Procedure, shortened: as §2

Italian ryegrass [5] = test: Test C postemergence; assay type: in vivo, Lolium multiflorum
Procedure, shortened: as §2

blackgrass = test: Test A postemergence; assay type: in vivo, Alopecurus myosuroides
Procedure, shortened: as §1

[6] = 500 g ai/ha, 0 to 100 scale where 0 is no effect and 100 is complete control
[7] = 125 g ai/ha, 0 to 100 scale, 0 no effect, 100 complete control
[8] = 16 g ai/ha, postemergence, 0 is no effect, 100 is complete control
[9] = 31 g ai/ha, postemergence, visual rating, scale 0 to 100 (0 no effect, 100 complete control), 13 to 15 days
[10] = 125 g ai/ha, postemergence, visual rating, scale 0 to 100 (0 no effect, 100 complete control)
[11] = Postemergence, 62 g ai/ha, scale 0 to 100 (0 no effect, 100 complete control), 13 to 15 days
[12] = 16 g ai/ha, scale 0 to 100 (0 no effect, 100 complete control)
[13] = 125 g ai/ha, scale 0 (no effect) to 100 (complete control)
[14] = Preemergence, 62 g ai/ha, scale 0 to 100, 0 no effect, 100 complete control

Structure (SMILES): N#Cc1cn(-c2c(C#N)cccc2Oc2ncc(Cl)cn2)nn1 [Compound 273]
- Ragweed plant response rating (0 to 100 scale) (ragweed; 125 g ai/ha): 70
- Ragweed plant response rating (ragweed; [6]): 80
- Plant response rating, Ryegrass, Italian (Italian ryegrass [1]; [7]): 50
- Plant response rating, Ryegrass, Italian (Italian ryegrass [1]; [6]): 80
- Plant response rating, Foxtail, Giant (giant foxtail; [7]): 70
- Plant response rating, Foxtail, Giant (giant foxtail; [6]): 90
- Plant response rating (0 to 100), Velvetleaf (velvetleaf; [8]): 5
- Velvetleaf plant response rating (velvetleaf; [9]): 10
- Plant response rating, Velvetleaf (velvetleaf; [10]): 30
- Plant response rating, Velvetleaf (velvetleaf; [11]): 25
- Plant response rating (0 to 100), Pigweed (pigweed [2]; [8]): 65
- Pigweed plant response rating (pigweed [2]; [9]): 80
- Plant response rating, Pigweed (pigweed [2]; [10]): 90
- Plant response rating, Pigweed (pigweed [2]; [11]): 65
- Crabgrass, Large plant response rating (large (Lg) crabgrass; [12]): 90
- Crabgrass, Large plant response rating (large (Lg) crabgrass; [13]): 100
- Plant response rating, Crabgrass, Large (large (Lg) crabgrass; [14]): 95
- Plant response rating (0 to 100), Kochia (kochia; [8]): 70
- Kochia plant response rating (kochia; [9]): 65
- Plant response rating, Kochia (kochia; [10]): 95
- Plant response rating, Kochia (kochia; [11]): 80
- Ryegrass, Italian plant response rating (0 to 100 scale) (Italian ryegrass [3]; 125 g ai/ha): 20
- Ryegrass, Italian plant response rating (Italian ryegrass [3]; [6]): 40
- Plant response rating (0 to 100), Chickweed (chickweed; [8]): 10
- Chickweed plant response rating (chickweed; [9]): 30
- Plant response rating, Chickweed (chickweed; [10]): 70
- Plant response rating, Chickweed (chickweed; [11]): 35
- Plant response rating, Galium (galium; [7]): 80
- Plant response rating, Galium (galium; [6]): 100
- Waterhemp plant response rating (waterhemp; [12]): 45
- Waterhemp plant response rating (waterhemp; [13]): 100
- Plant response rating, Waterhemp (waterhemp; [14]): 98
- Plant response rating, Corn (corn; [7]): 40
- Plant response rating, Corn (corn; [6]): 50
- Nutsedge, Yellow plant response rating (yellow nutsedge; [12]): 0
- Nutsedge, Yellow plant response rating (yellow nutsedge; [13]): 35
- Plant response rating, Nutsedge, Yellow (yellow nutsedge; [14]): 5
- Pigweed plant response rating (pigweed [4]; [12]): 55
- Pigweed plant response rating (pigweed [4]; [13]): 100
- Plant response rating, Pigweed (pigweed [4]; [14]): 100
- Plant response rating (0 to 100), Ryegrass, Italian (Italian ryegrass [5]; [8]): 5
- Ryegrass, Italian plant response rating (Italian ryegrass [5]; [9]): 5
- Plant response rating, Ryegrass, Italian (Italian ryegrass [5]; [10]): 10
- Plant response rating, Ryegrass, Italian (Italian ryegrass [5]; [11]): 5
- Plant response rating, Blackgrass (blackgrass; [7]): 60
- Plant response rating, Blackgrass (blackgrass; [6]): 80
